Measurements: patent US20240294466A1, “SODIUM N-(8-(2- HYDROXYBENZOYL)AMINO)CAPRYLATE P[…] A” (Novo Nordisk A/S, priority 2021, published 2024)

Legend:
Assay type in all cases: physicochemical
[1] = Dynamic vapour sorption (DVS) moisture uptake, method 3; conditions: for mass increase when subjected to an increase in relative humidity from about 0% to about 65% RH as determined by DVS: 25° C.; for Moisture absorbed for SNAC at 65% RH determined by DVS: DVS at 25 °C
Protocol: Moisture sorption/desorption data were measured by a Dynamic Vapour Sorption Advantage 1 from Surface Measurement Systems. Prior to analysis the samples were dried for up to about 48 h in desiccators containing phosphorus pentoxide. Approximately 20 mg of sample was placed into a balance pan and loaded into the instrument and the sample was then further dried for a minimum of 500 min in the instrument at 0% RH using a nitrogen purge. The resulting sample weight after the further drying was assigned as the 0% start weight and all weight gains and losses was calculated relative to this start weight. Sorption and desorption isotherms were collected over a range from 0 to 90% relative humidity (RH) using a nitrogen purge at 25° C. The threshold for equilibrium used for analysis was 0.002 to 0.0005 dm/dt.
Furthermore, samples were taken after 24 h of exposure at the indicated elevated temperatures and were subjected to dynamic vapor sorption measurements in accordance with method 3 to determine the hygroscopicity. The moisture uptake was measured at 65% RH. The hygroscopicity is decreased as the moisture absorbed at 65% RH decreases when exposing SNAC polymorphic form A to elevated temperatures for 24 h.

[2] = XRPD FWHM of the peak at 8.7±0.2° 2θ (degree of crystal imperfections), method 1; conditions: Batch 5, tray oven
Protocol: (§1) XRPD was performed using a Malvern Panalytical Empyrean diffractometer at ambient conditions. The diffraction pattern was measured at room temperature using an Empyrean Cu LFF HR (45 kV/40 mA) source and PIXcel3D-Medipix3 1×1 detector. The measurement was performed in the range of 2-40° 20 using a scan speed of 0.067335° 2θ/s and a step size of 0.0262606° 2θ. The samples were measured in transmission mode and with a spinner revolution time of 1 second. Approximately 200 mg of sample were placed between two sheets of Kapton Polyimide Thin-film. The measurements were performed using a Soller slit of 0.04 radians and a fixed divergence slit of 0.5° on the incident beam, and a 3 mm Anti scatter slit and a Soller slit of 0.04 radians in the diffracted beam.
The degree of crystal imperfections was assessed by use of the FWHM as more crystal imperfections might cause peak broadening and lower peak height, which leads to higher FWHM values due to fewer lattice planes with identical orientation contributing to the diffraction peak. Oppositely, in the absence of crystal imperfections, lattice planes with identical orientation increase and result in narrower and higher diffraction peaks leading to smaller FWHM values. The FWHM was calculated using the characteristic peak at 8.7±0.2° 2θ by finding the apex of the peak and measuring the height of the peak applying the x-axis as the baseline (automatic mode) (see FIG. 11) or applying a baseline spanning the two surrounding troughs (manual mode) (see FIG. 12). This value is then divided in half to find the half height. Hereafter the width of the peak at that half height is measured and reported in ° 2θ. Alternatively, the peak at 6.0±0.2° 2θ may also be used to calculate the FWHM.
(§2) Samples from a batch of SNAC polymorphic form A (Batch 5) with a FWHM of 0.97° 2θ (automatic mode) and a moisture uptake of 1.98% at 65% RH from the beginning were heated to 90, 100, 110, 120, 130, and 140° C., respectively, in a tray oven. The samples were exposed to their respective temperatures for up to 72 h. The sample size was small enough to ensure that the samples equilibrated completely, within a few of minutes, to the oven temperature. Samples were taken during the 72 h of elevated temperature exposure and subjected to XRPD measurements in accordance with method 1 to determine the polymorphic form and impact on crystal imperfections using FWHM with the x-axis as the baseline (automatic mode).
(§3) Samples from different batches of SNAC polymorphic form A were subjected to a heat treatment in a tray oven and the sample size was small enough to ensure that the samples equilibrated completely and within a couple of minutes to the oven temperature. Samples were taken from the batches before the heat treatment and after the heat treatment and subjected to XRPD measurements in accordance with method 1 to determine the polymorphic form and impact on crystal imperfections using FWHM with the x-axis as the baseline (auto mode). Furthermore, samples were also subjected to DVS measurements in accordance with method 3 to determine the impact of the heat treatment on the hygroscopicity.

[3] = Polymorphic form determined by XRPD, method 1; conditions: for Polymorphic form of SNAC determined by XRPD: Batch 5, tray oven
Protocol: as §1
The polymorphic form of the sample was determined by comparison of the diffractogram obtained for the sample with reference diffractograms for the SNAC polymorphs and solvates.
as §2, §3

O=C([O-])CCCCCCCNC(=O)c1ccccc1O.[Na+] [SNAC, monosodium N-[8-(2-hydroxybenzoyl)-amino]caprylate]
mass increase when subjected to an increase in relative humidity from about 0% to about 65% RH as determined by DVS ([1]; sample of FIG. 1): less than 1.0%
mass increase when subjected to an increase in relative humidity from about 0% to about 65% RH as determined by DVS ([1]; sample of FIG. 2): about 1.3%
mass increase when subjected to an increase in relative humidity from about 0% to about 65% RH as determined by DVS ([1]; sample of FIG. 3): about 2.9%
Moisture absorbed for SNAC at 65% RH determined by DVS ([1]; Batch 5, after 24 h at 90 °C): 1.73%
Moisture absorbed for SNAC at 65% RH determined by DVS ([1]; Batch 5, after 24 h at 100 °C): 1.37%
Moisture absorbed for SNAC at 65% RH determined by DVS ([1]; Batch 5, after 24 h at 110 °C): 1.21%
Moisture absorbed for SNAC at 65% RH determined by DVS ([1]; Batch 5, after 24 h at 120 °C): 0.94%
Moisture absorbed for SNAC at 65% RH determined by DVS ([1]; Batch 5, after 24 h at 130 °C): 0.81%
Moisture absorbed for SNAC at 65% RH determined by DVS ([1]; Batch 5, after 24 h at 140 °C): 0.74%
FWHM (automatic mode) for the XRPD peak around 8.7 ± 0.2° 2θ ([2]; 90 °C, 0 h): 0.97 ° 2θ
FWHM (automatic mode) for the XRPD peak around 8.7 ± 0.2° 2θ ([2]; 90 °C, 0.25 h): 0.95 ° 2θ
FWHM (automatic mode) for the XRPD peak around 8.7 ± 0.2° 2θ ([2]; 90 °C, 0.5 h): 0.95 ° 2θ
FWHM (automatic mode) for the XRPD peak around 8.7 ± 0.2° 2θ ([2]; 90 °C, 1 h): 0.92 ° 2θ
FWHM (automatic mode) for the XRPD peak around 8.7 ± 0.2° 2θ ([2]; 90 °C, 6 h): 0.92 ° 2θ
FWHM (automatic mode) for the XRPD peak around 8.7 ± 0.2° 2θ ([2]; 90 °C, 24 h): 0.89 ° 2θ
FWHM (automatic mode) for the XRPD peak around 8.7 ± 0.2° 2θ ([2]; 90 °C, 48 h): 0.89 ° 2θ
FWHM (automatic mode) for the XRPD peak around 8.7 ± 0.2° 2θ ([2]; 90 °C, 72 h): 0.89 ° 2θ
FWHM (automatic mode) for the XRPD peak around 8.7 ± 0.2° 2θ ([2]; 100 °C, 0 h): 0.97 ° 2θ
FWHM (automatic mode) for the XRPD peak around 8.7 ± 0.2° 2θ ([2]; 100 °C, 0.25 h): 1.02 ° 2θ
FWHM (automatic mode) for the XRPD peak around 8.7 ± 0.2° 2θ ([2]; 100 °C, 0.5 h): 0.95 ° 2θ
FWHM (automatic mode) for the XRPD peak around 8.7 ± 0.2° 2θ ([2]; 100 °C, 1 h): 0.95 ° 2θ
FWHM (automatic mode) for the XRPD peak around 8.7 ± 0.2° 2θ ([2]; 100 °C, 6 h): 0.89 ° 2θ
FWHM (automatic mode) for the XRPD peak around 8.7 ± 0.2° 2θ ([2]; 100 °C, 24 h): 0.81 ° 2θ
FWHM (automatic mode) for the XRPD peak around 8.7 ± 0.2° 2θ ([2]; 100 °C, 48 h): 0.81 ° 2θ
FWHM (automatic mode) for the XRPD peak around 8.7 ± 0.2° 2θ ([2]; 100 °C, 72 h): 0.81 ° 2θ
FWHM (automatic mode) for the XRPD peak around 8.7 ± 0.2° 2θ ([2]; 110 °C, 0 h): 0.97 ° 2θ
FWHM (automatic mode) for the XRPD peak around 8.7 ± 0.2° 2θ ([2]; 110 °C, 0.25 h): 0.92 ° 2θ
FWHM (automatic mode) for the XRPD peak around 8.7 ± 0.2° 2θ ([2]; 110 °C, 0.5 h): 0.84 ° 2θ
FWHM (automatic mode) for the XRPD peak around 8.7 ± 0.2° 2θ ([2]; 110 °C, 1 h): 0.87 ° 2θ
FWHM (automatic mode) for the XRPD peak around 8.7 ± 0.2° 2θ ([2]; 110 °C, 6 h): 0.71 ° 2θ
FWHM (automatic mode) for the XRPD peak around 8.7 ± 0.2° 2θ ([2]; 110 °C, 24 h): 0.66 ° 2θ
FWHM (automatic mode) for the XRPD peak around 8.7 ± 0.2° 2θ ([2]; 110 °C, 48 h): 0.60 ° 2θ
FWHM (automatic mode) for the XRPD peak around 8.7 ± 0.2° 2θ ([2]; 110 °C, 72 h): 0.58 ° 2θ
FWHM (automatic mode) for the XRPD peak around 8.7 ± 0.2° 2θ ([2]; 120 °C, 0 h): 0.97 ° 2θ
FWHM (automatic mode) for the XRPD peak around 8.7 ± 0.2° 2θ ([2]; 120 °C, 0.25 h): 0.81 ° 2θ
FWHM (automatic mode) for the XRPD peak around 8.7 ± 0.2° 2θ ([2]; 120 °C, 0.5 h): 0.76 ° 2θ
FWHM (automatic mode) for the XRPD peak around 8.7 ± 0.2° 2θ ([2]; 120 °C, 1 h): 0.71 ° 2θ
FWHM (automatic mode) for the XRPD peak around 8.7 ± 0.2° 2θ ([2]; 120 °C, 6 h): 0.63 ° 2θ
FWHM (automatic mode) for the XRPD peak around 8.7 ± 0.2° 2θ ([2]; 120 °C, 24 h): 0.58 ° 2θ
FWHM (automatic mode) for the XRPD peak around 8.7 ± 0.2° 2θ ([2]; 120 °C, 48 h): 0.58 ° 2θ
FWHM (automatic mode) for the XRPD peak around 8.7 ± 0.2° 2θ ([2]; 120 °C, 72 h): 0.53 ° 2θ
FWHM (automatic mode) for the XRPD peak around 8.7 ± 0.2° 2θ ([2]; 130 °C, 0 h): 0.97 ° 2θ
FWHM (automatic mode) for the XRPD peak around 8.7 ± 0.2° 2θ ([2]; 130 °C, 0.25 h): 0.81 ° 2θ
FWHM (automatic mode) for the XRPD peak around 8.7 ± 0.2° 2θ ([2]; 130 °C, 0.5 h): 0.74 ° 2θ
FWHM (automatic mode) for the XRPD peak around 8.7 ± 0.2° 2θ ([2]; 130 °C, 1 h): 0.66 ° 2θ
FWHM (automatic mode) for the XRPD peak around 8.7 ± 0.2° 2θ ([2]; 130 °C, 6 h): 0.50 ° 2θ
FWHM (automatic mode) for the XRPD peak around 8.7 ± 0.2° 2θ ([2]; 130 °C, 24 h): 0.50 ° 2θ
FWHM (automatic mode) for the XRPD peak around 8.7 ± 0.2° 2θ ([2]; 130 °C, 48 h): 0.50 ° 2θ
FWHM (automatic mode) for the XRPD peak around 8.7 ± 0.2° 2θ ([2]; 130 °C, 72 h): 0.50 ° 2θ
FWHM (automatic mode) for the XRPD peak around 8.7 ± 0.2° 2θ ([2]; 140 °C, 0 h): 0.97 ° 2θ
FWHM (automatic mode) for the XRPD peak around 8.7 ± 0.2° 2θ ([2]; 140 °C, 0.25 h): 0.68 ° 2θ
FWHM (automatic mode) for the XRPD peak around 8.7 ± 0.2° 2θ ([2]; 140 °C, 0.5 h): 0.58 ° 2θ
FWHM (automatic mode) for the XRPD peak around 8.7 ± 0.2° 2θ ([2]; 140 °C, 1 h): 0.53 ° 2θ
FWHM (automatic mode) for the XRPD peak around 8.7 ± 0.2° 2θ ([2]; 140 °C, 6 h): 0.45 ° 2θ
FWHM (automatic mode) for the XRPD peak around 8.7 ± 0.2° 2θ ([2]; 140 °C, 24 h): 0.45 ° 2θ
FWHM (automatic mode) for the XRPD peak around 8.7 ± 0.2° 2θ ([2]; 140 °C, 48 h): 0.42 ° 2θ
FWHM (automatic mode) for the XRPD peak around 8.7 ± 0.2° 2θ ([2]; 140 °C, 72 h): 0.45 ° 2θ
Polymorphic form of SNAC determined by XRPD ([3]; 120 °C, 48 h): A & B
Polymorphic form of SNAC determined by XRPD ([3]; 120 °C, 72 h): A & B
Polymorphic form of SNAC determined by XRPD ([3]; 130 °C, 6 h): A & B
Polymorphic form of SNAC determined by XRPD ([3]; 130 °C, 24 h): A & B
Polymorphic form of SNAC determined by XRPD ([3]; 130 °C, 48 h): A & B
Polymorphic form of SNAC determined by XRPD ([3]; 130 °C, 72 h): A & B
Polymorphic form of SNAC determined by XRPD ([3]; 140 °C, 1 h): A & B
Polymorphic form of SNAC determined by XRPD ([3]; 140 °C, 6 h): A & B
Polymorphic form of SNAC determined by XRPD ([3]; 140 °C, 24 h): A & B
Polymorphic form of SNAC determined by XRPD ([3]; 140 °C, 48 h): A & B
Polymorphic form of SNAC determined by XRPD ([3]; 140 °C, 72 h): A & B
onset time of conversion into polymorphic form B ([3]; at 120° C.): more than 24 h
onset time of conversion into polymorphic form B ([3]; at 130° C.): > 1 h
onset time of conversion into polymorphic form B ([3]; at 140° C.): > 0.5 h
conversion of the polymorphic form ([3]; exposure for up to 72 h at temperatures up to about 110° C.): does not convert
